These results are taken from ChEMBL document CHEMBL2176908, “Structure-aided design of novel inhibitors of HIV protease based on a benzodiazepine scaffold” (J Med Chem, 2012).

Calls of active or inactive are those of the source. The rule behind the calls is not given here. Where only a bound is given, the exact number is not on record here.

Experiment [1] addresses T1, Protease (Human immunodeficiency virus 1, UniProt Q9YQ12). Kind of experiment: Inhibition of HIV1 protease by spectrophotometric assay.
Experiment [2] concerns the target T1, Protease. Kind of experiment: Inhibition of HIV1 protease by double-reciprocal Lineweaver-Burk plot. Particulars: read-out: Ki(app).
The target in experiment [3] is Cathepsin D (Homo sapiens) (UniProt P07339). The experiment can be described thus: Inhibition of human cathepsin D spectrofluorometry.
For a further experiment, the target named is T2, Papain (Carica papaya) (UniProt P00784).
T2 sequence (whole entry): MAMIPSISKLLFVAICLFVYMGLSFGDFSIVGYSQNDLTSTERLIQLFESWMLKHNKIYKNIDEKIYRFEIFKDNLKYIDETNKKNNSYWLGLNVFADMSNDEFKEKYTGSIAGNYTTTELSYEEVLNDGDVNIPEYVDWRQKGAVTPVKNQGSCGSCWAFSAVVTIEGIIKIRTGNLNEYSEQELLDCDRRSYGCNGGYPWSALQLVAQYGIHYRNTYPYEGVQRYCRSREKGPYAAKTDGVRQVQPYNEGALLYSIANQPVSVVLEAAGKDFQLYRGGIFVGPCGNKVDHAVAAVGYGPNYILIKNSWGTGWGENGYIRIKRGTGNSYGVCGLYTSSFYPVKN
The experiment can be described thus: Inhibition of papaya papain by spectrofluorometry.

T1 sequence (Q9YQ12 whole entry): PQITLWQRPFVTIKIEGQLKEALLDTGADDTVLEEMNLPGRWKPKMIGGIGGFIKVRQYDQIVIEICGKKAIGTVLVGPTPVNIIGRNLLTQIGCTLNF
Sequence of Cathepsin D (Homo sapiens) (P07339 65-162 limits assumed): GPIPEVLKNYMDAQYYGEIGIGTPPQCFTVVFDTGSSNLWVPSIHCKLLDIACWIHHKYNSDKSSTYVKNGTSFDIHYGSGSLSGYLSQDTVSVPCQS
Sequence of Cathepsin D (Homo sapiens) (P07339 169-412 limits assumed): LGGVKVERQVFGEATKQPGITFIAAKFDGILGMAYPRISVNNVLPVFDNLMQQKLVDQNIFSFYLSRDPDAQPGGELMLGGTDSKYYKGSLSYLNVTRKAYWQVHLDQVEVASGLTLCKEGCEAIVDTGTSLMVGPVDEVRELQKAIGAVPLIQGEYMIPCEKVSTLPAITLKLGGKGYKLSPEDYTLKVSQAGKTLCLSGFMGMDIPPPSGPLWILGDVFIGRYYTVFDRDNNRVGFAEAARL

Regarding `CC1(C)CC(=O)C2=C(C1)Nc1ccccc1N(C(=O)C(=O)N1CC3=C(CC(C)(C)CC3=O)Nc3ccccc31)C2`, the midpoint of inhibition at Protease [1], the IC50, lay at 200 nM. In addition, at Protease [2], the Ki is at most 12 nM.
For `CC1(C)CC(=O)C2=C(C1)Nc1ccccc1N(C(=O)C(=O)N1c3ccccc3NC3=C(C(=O)CC(C)(C)C3)[C@H]1c1ccccc1)[C@H]2c1ccccc1`, on Protease [1], the IC50 is over 1000 nM. The Ki on Protease [2] was at most 12 nM.
At Protease [1], `O=C1CC(c2ccccc2)CC2=C1C(c1ccccc1)N(C(=O)C(=O)N1c3ccccc3NC3=C(C(=O)CC(c4ccccc4)C3)C1c1ccccc1)c1ccccc1N2` (mixture of isomers) returned an IC50 of 60 nM. Besides, the Ki at Protease [2] is at most 12 nM.
On Protease [1], `O=C1CC(c2ccccc2)CC2=C1C(c1ccccc1)Nc1ccccc1N2` (mixture of isomers) registered an IC50 of 20000 nM. For the same compound, at Protease [2], the Ki is at most 12 nM.
On the same counts, the results for `COc1cc([C@@H]2Nc3ccccc3NC3=C2C(=O)C[C@@H](c2ccccc2)C3)cc(Cl)c1O` (mixture of isomers) are 4300 nM and at most 12 nM.
The like results for `CC1(C)CC(=O)C2=C(C1)Nc1ccccc1N(C(=O)C(F)(F)C(=O)N1c3ccccc3NC3=C(C(=O)CC(C)(C)C3)C1c1ccccc1)C2c1ccccc1` (mixture of isomers) were, in that order, 300 nM and at most 12 nM.
The like results for `CC1(C)CC(=O)C2=C(C1)Nc1ccccc1N(C(=O)C(=O)N1c3ccccc3NC3=C(C(=O)CC(C)(C)C3)C1c1ccccc1)C2c1ccccc1` (mixture of isomers; 5) were, in that order, 30 nM and at most 12 nM.
In turn, `CC1(C)CC(=O)C2=C(C1)Nc1ccccc1N(C(=O)C(=O)N1c3ccccc3NC3=C(C(=O)CC(C)(C)C3)C1c1ccccc1)C2c1ccccc1` (mixture of isomers; 5a) [listing 1 of 2 here] gave an IC50 at Protease [1] of 30 nM.
Turning to `CC1(C)CC(=O)C2=C(C1)Nc1ccccc1N(C(=O)C(=O)N1c3ccccc3NC3=C(C(=O)CC(C)(C)C3)C1c1ccccc1)C2c1ccccc1` (mixture of isomers; 5a) [listing 2 of 2 here], the inhibition entry (in experiment [3]; at Papain (Carica papaya)) was “inactive” in each case.
The compound `CC1(C)CC(=O)C2=C(C1)Nc1ccccc1N(C(=O)C(=O)N1c3ccccc3NC3=C(C(=O)CC(C)(C)C3)C1c1ccccc1)C2` (racemic) gave an IC50 against Protease [1] of 100 nM. Moreover, on Protease [2], the Ki was at most 12 nM.
The like results for `CC1(C)CC(=O)C2=C(C1)Nc1ccccc1NC2c1ccccc1` (racemic) were, in that order, 110000 nM and at most 12 nM.
